Measurements as given in paper PMC7160673, “A Degenerate Peptide Library Approach to Reveal Sequence Determinants of Methyllysine-Driven Protein Interactions” (Frontiers in Cell and Developmental Biology, 2020).

Legend:
Format in all cases: binding
[1] = test system: CST 9733 (anti-H3K27me3); assay: Histone peptide microarray, CST 9733; details: histone peptide array signal normalized to the highest peptide average per subarray, hits; CST 9733 LOT:14 dilution 1:5,000
Protocol: (§1) Peptide microarrays were fabricated using an Aushon 2470 microarrayer and used as described ([Cornett et al., 2017]) with the following modifications. Protein and antibody hybridization steps were performed in buffer containing 25 mM HEPES pH 7.5, 100 mM NaCl, 0.5% BSA (w/v), and 0.1% NP-40. Slides were washed 3 × 5 min in PBS supplemented with 0.1% Tween-20 between each hybridization step. Antibodies used were primary anti-GST (Sigma #7781, 1:2,000 dilution) and an AlexaFluor 647-labeled secondary antibody (Life Technologies A-21245, 1:5,000 dilution). […] Full lists of peptides queried by array analysis are in Supplementary Table S2.

[2] = test system: 53BP1 TTD; assay: Histone peptide microarray, 53BP1 TTD; details: 53BP1 TTD hits, average signal per peptide
Protocol: as §1

[3] = test system: Active Motif #39161, anti-H3K9me3; assay: Histone peptide microarray, Active Motif 39161; details: Active Motif 39161 (anti-H3K9me3) hits
Protocol: as §1

[4] = test system: Millipore #07-449, anti-H3K27me3; assay: Histone peptide microarray, Millipore 07-449; details: Millipore 07-449 (anti-H3K27me3) hits, average signal per peptide
Protocol: as §1

[5] = test system: Abcam #ab8895, anti-H3K4me1; assay: Histone peptide microarray, Abcam ab8895; details: Abcam ab8895 (anti-H3K4me1) hits, average signal per peptide
Protocol: as §1

## AR(Me2a)TK(Me3)QTARKSTGGKAPRKQL-K(Biot)-NH2 [H3.1R2me2aK4me3]
[1]
  Avg Signal: 0.001321
[2]
  Avg Signal: 0.09687
[3]
  Avg Signal: 0.01254
[4]
  Avg Signal: 0.02156

## Ac-SGRGKGGKGLGK(Ac)GGAKRHRKVLR-Peg-Biot [Peptide H4K12ac]
[1]
  Avg Signal: 0.000354
[2]
  Avg Signal: 0.1511
[3]
  Avg Signal: 0.01336
[5]
  Avg Signal: 0.001961

## ACitTKQTARKSTGGKAPRKQL-K(Biot)-NH2 [Peptide H3.1Cit2]
[1]
  Avg Signal: 0.005497
[2]
  Avg Signal: 0.1308
[3]
  Avg Signal: 0.002403
[5]
  Avg Signal: 0.01656

## ARTK(Me3)QTARK(Ac)STGGKAPRKQL-K(Biot)-NH2 [H3.1K4me3K9ac]
[1]
  Avg Signal: 0.008895
[2]
  Avg Signal: 0.2378
[3]
  Avg Signal: 0.02897
[4]
  Avg Signal: 0.05697

## ARTK(Me3)QTARK(Ac)STGGK(Ac)APRK(Ac)QL-K(Biot)-NH2 [H3.1K4me3K9acK14acK18ac]
[1]
  Avg Signal: 0.009625
[2]
  Avg Signal: 0.09733
[3]
  Avg Signal: 0.004819
[4]
  Avg Signal: 0.03443

## AR(Me2s)TK(Me3)QTARK(Ac)STGGK(Ac)APRK(Ac)QL-K(Biot)-NH2 [H3.1R2me2sK4me3K9acK14acK18ac]
[1]
  Avg Signal: 0.0007823
[2]
  Avg Signal: 0.134
[3]
  Avg Signal: 0.02558
[4]
  Avg Signal: 0.02279

## PEPAK(Me3)SAPAPKKGSKKAVTKAQKK-Peg-Biot [Peptide H2BK5me3]
[1]
  Avg Signal: 0.00351
[2]
  Avg Signal: 0.04404
[3]
  Avg Signal: 0.03906
[4]
  Avg Signal: 0.1635

## ARTK(Me3)QTARK(Ac)pSTGGKAPRKQL-K(Biot)-NH2 [H3.1K4me3K9acS10p]
[1]
  Avg Signal: 0.004944
[2]
  Avg Signal: 0.1299
[3]
  Avg Signal: 0.01343
[4]
  Avg Signal: 0.007736

## ARTKQpTARK(Me3)STGGKAPRKQL-K(Biot)-NH2 [Peptide H3.1T6pK9me3]
[1]
  Avg Signal: 0.01471
[2]
  Avg Signal: 0.226
[3]
  Avg Signal: 0.3154
[4]
  Avg Signal: 0.02132

## ARTK(Me3)QTARK(Ac)STGGK(Ac)APRKQL-K(Biot)-NH2 [H3.1K4me3K9acK14ac]
[1]
  Avg Signal: 0.005042
[2]
  Avg Signal: 0.06229
[3]
  Avg Signal: 0.01712
[4]
  Avg Signal: 0.05366

## ACitTK(Me3)QTARKSTGGKAPRKQL-K(Biot)-NH2 [H3.1Cit2K4me3]
[1]
  Avg Signal: 0.00216
[2]
  Avg Signal: 0.1746
[3]
  Avg Signal: 0.009245
[4]
  Avg Signal: 0.01263

## ARTK(Me3)QpTARK(Ac)STGGK(Ac)APRK(Ac)QL-K(Biot)-NH2 [H3.1K4me3T6pK9acK14acK18ac]
[1]
  Avg Signal: 0.004429
[2]
  Avg Signal: 0.03157
[3]
  Avg Signal: 0.005164
[4]
  Avg Signal: 0.0001463

## AR(Me2s)TK(Me3)QTARKSTGGKAPRKQL-K(Biot)-NH2 [H3.1R2me2sK4me3]
[1]
  Avg Signal: 0.00218
[2]
  Avg Signal: 0.1898
[3]
  Avg Signal: 0.01035
[4]
  Avg Signal: 0.0135

## ARTK(Me3)QTARKpSTGGKAPRKQL-K(Biot)-NH2 [H3.1K4me3S10p]
[1]
  Avg Signal: 0.002306
[2]
  Avg Signal: 0.00608
[3]
  Avg Signal: 0.0006195
[4]
  Avg Signal: 0.003491

## ARTK(Me3)QTARKSTGGK(Ac)APRK(Ac)QL-K(Biot)-NH2 [H3.1K4me3K14acK18ac]
[1]
  Avg Signal: 0.006975
[2]
  Avg Signal: 0.09432
[3]
  Avg Signal: 0.0136
[4]
  Avg Signal: 0.01453

## ARTK(Me3)QpTARKSTGGKAPRKQL-K(Biot)-NH2 [Peptide H3.1K4me3T6p]
[1]
  Avg Signal: 0.001818
[2]
  Avg Signal: 0.1846
[3]
  Avg Signal: 0.02043
[4]
  Avg Signal: 0.009429

## AR(Me2a)TK(Me3)QTARK(Ac)pSTGGK(Ac)APRK(Ac)QL-K(Biot)-NH2 [H3.1R2me2aK4me3K9acS10pK14acK18ac]
[1]
  Avg Signal: 0.001633
[2]
  Avg Signal: 0.02248
[3]
  Avg Signal: 0.01104
[4]
  Avg Signal: 0.0008355
